Values of other authors in patent US11395819B1, “Antiviral and virucidal lung nebulizer compositions and related treatment methods” (priority 2021, dated 2022).
Where a name gives a salt, the structure may show the parent alone.

Experiments:
[1] = system: divergent influenza A strains and influenza B strain
[2] = system: avian H7N9 influenza virus; details: mice
[3] = given by inhalation

## CN(C)CCC(c1ccc(Cl)cc1)c1ccccn1 (stereo not drawn) [Chlorpheniramine, chlorpheniramine maleate]
[1]
  inhibitory activity against influenza: potent inhibitory activity
[2]
  protection from fatal challenge: protects mice from fatal challenge
[3]
  bronchodilation: significant bronchodilation
